The structures appear in SMILES notation. Converted amounts (≈) assume the structure as drawn. Like-named read-outs stand apart in the source and are kept apart here. A value given as a limit tells only on which side of the number the result lay.

Test [1] deals with Escherichia coli. To be noted: Escherichia coli MMX 102/ATCC 25922, range in parentheses; cited from earlier work.
The test system of test [2] is Pseudomonas aeruginosa. In words: Broth microdilution MIC testing. It counts as cell-based. Particulars: Pseudomonas aeruginosa MMX 103/ATCC 27853, susceptible, QC; for MIC: ATCC27853, read-out: Minimal Inhibitory Concentration. How it is done:
(§1) Broth microdilution assay: Mueller Hinton II broth (MHB II, BBL, BD, catalog no. 212322; lot no. 5257869) was used for testing most aerobes.
(§2) MIC values were determined using a broth microdilution procedure described by CLSI, see reference (1). Automated liquid handlers (Multidrop 384, Labsystems, Helsinki, Finland; Biomek 2000 and Biomek FX, Beckman Coulter, Fullerton Calif.) were used to conduct serial dilutions and liquid transfers.
(§3) The wells in Columns 2 through 12 of two standard 96-well microdilution plates (Costar 3795, Corning Inc., Corning, N.Y.) were filled with 150 μL of diluent specific to the compound tested. Three hundred microliters of each comparator and investigational drug solution (40× or 100×) was added to one well in Column 1 of the plates. The Biomek 2000 was used to complete the serial transfers through Column 11. The wells of Column 12 contained no drug and were the organism growth control wells. These panels were the “mother plates.”
(§4) Because drugs were prepared at either 40× or 100×, the “daughter plates” were loaded with 185-188 μL of the appropriate test media for the tested organism, using the Multidrop 384 or by hand. The daughter plates were prepared on the Biomek FX instrument, which transferred 2-5 μL of drug solution from each well of a mother plate to the corresponding well of each daughter plate in a single step. The wells of the daughter plates ultimately contained 185-188 μL of broth appropriate to the organism, 2-5 μL of drug solution, and 10 μL of bacterial inoculum prepared in broth.
(§5) Standardized inoculum of each organism was prepared per CLSI methods, see reference (1). The inoculum for each organism was dispensed into sterile reservoirs divided by length (Beckman Coulter), and the Biomek 2000 was used to inoculate the plates. Daughter plates were placed on the Biomek 2000 work surface in reverse orientation so that inoculation took place from low to high drug concentration. The Biomek 2000 delivered 10 μL of standardized inoculum into each well. This yielded a final cell density in the daughter plates of approximately 5×10^5 CFU/mL.
(§6) Plates were stacked 3 high, covered with a lid on the top plate, placed in plastic bags, and incubated at 35° C. for approximately 18 to 20 hr. Following incubation, the microplates were removed from the incubator and viewed from the bottom using a plate viewer. […] The MIC was read and recorded as the lowest concentration of drug that inhibited visible growth of the organism.
For orientation: In broth dilution the organism is exposed to a series of concentrations in liquid medium.

The subject of another test is Klebsiella pneumoniae. In words: Broth microdilution MIC testing. It counts as cell-based. To be noted: Klebsiella pneumoniae MMX 214/ATCC 13883, susceptible; for MIC: ATCC13883, read-out: Minimal Inhibitory Concentration. How it is done:
as §1, §2, §3, §4, §5, §6

For test [3], the system named is Escherichia coli. In words: Broth microdilution MIC testing. The test is classed as cell-based. Particulars: for MIC: Escherichia coli, read-out: Minimal Inhibitory Concentration. How it is done: as §1, §2, §3, §4, §5, §6
Test [4] relates to Stenotrophomonas maltophila. In words: Broth microdilution MIC testing. The test is classed as cell-based. To be noted: Stenotrophomonas maltophila MMX 4746, susceptible; for MIC: Stenotrophomonas sp. LMG 10879, read-out: Minimal Inhibitory Concentration. How it is done:
as §1, §2, §3, §4, §5, §6

In a further test the test system is Enterobacter cloacae. In words: Broth microdilution MIC testing. The test is classed as cell-based. Particulars: Enterobacter cloacae MMX 6089, susceptible; for MIC: read-out: Minimal Inhibitory Concentration. How it is done:
as §1, §2, §3, §4, §5, §6

The next test has as its system Acinetobacter baumannii. In words: Broth microdilution MIC testing. The test is classed as cell-based. Particulars: Acinetobacter baumannii MMX 1630/ATCC 19606, susceptible; for MIC: ATCC19606, read-out: Minimal Inhibitory Concentration. How it is done:
as §1, §2, §3, §4, §5, §6

The test system of test [5] is Pseudomonas aeruginosa. Particulars: Pseudomonas aeruginosa MMX 103/ATCC 27853, range in parentheses; cited from earlier work.
Test [6] relates to N. gonorrhoeae ATCC49226/MMX 683. In words: Agar dilution MIC assay (Example 1). It counts as cell-based, Neisseria gonorrhoeae. To be noted: Neisseria gonorrhoeae MMX 683/ATCC 49226, QC. How it is done: Neisseria gonococcus (N. gonorrhoeae) were assayed using a reference agar dilution method, see reference (2). Drug dilutions and drug-supplemented agar plates were prepared manually. Neisseria gonococcus was grown on Chocolate agar in a CO2 incubator overnight at 35° C. prior to assay. […] The MIC was read per CLSI guidelines, see reference (3).
A general note: In agar dilution, organisms are placed on agar that contains the substance at set levels.

[7] abbreviates: Escherichia coli MMX 102/ATCC 25922, QC strain.

`NCC[C@H](O)C(=O)N[C@@H]1C[C@H](N)[C@@H](O[C@H]2O[C@H](CN)[C@@H](O)[C@H](O)[C@H]2O)[C@H](O)[C@H]1O[C@H]1O[C@H](CO)[C@@H](O)[C@H](N)[C@H]1O` [Amikacin]: the “CLSI QC range of MIC” value with Escherichia coli [1] was “(0.5-4) μg/ml”; in the test on Pseudomonas aeruginosa [5], “(1-4) μg/ml”. Besides, the MIC stood at 2 µg/mL (≈ 3.42 µM) with Pseudomonas aeruginosa [2]; 0.5 µg/mL (≈ 0.854 µM) with Klebsiella pneumoniae; 4 µg/mL (≈ 6.83 µM) in the test with Escherichia coli [3] (ATCC25922); 0.5 µg/mL (≈ 0.854 µM) in the test on Escherichia coli [3]; 2 µg/mL (≈ 3.42 µM) in test [4]; 1 µg/mL (≈ 1.71 µM) with Enterobacter cloacae. The MIC in the test on Acinetobacter baumannii is 16 µg/mL (≈ 27.3 µM).
Take `CC(C)(O/N=C(\C(=O)N[C@@H]1C(=O)N2C(C(=O)[O-])=C(C[n+]3ccccc3)CS[C@H]12)c1csc(N)n1)C(=O)O` [Ceftazidime]: the “CLSI QC range of MIC” value in the test with Escherichia coli [1] is given as “(0.06-0.5) μg/ml”; in the test with Pseudomonas aeruginosa [5], “(1-4) μg/ml”. Also, the MIC came out at 1 µg/mL (≈ 1.83 µM) in the test on Pseudomonas aeruginosa [2]; 0.5 µg/mL (≈ 0.915 µM) in the test on Klebsiella pneumoniae; 0.25 µg/mL (≈ 0.457 µM) in the test on Escherichia coli [3] (ATCC25922); 0.12 µg/mL (≈ 0.22 µM) with Escherichia coli [3]; 4 µg/mL (≈ 7.32 µM) in test [4]; 8 µg/mL (≈ 14.6 µM) in the test with Enterobacter cloacae. Moreover, the MIC in the test on Acinetobacter baumannii came to 4 µg/mL (≈ 7.32 µM).
`CC1=C(C(=O)O)N2C(=O)[C@@H](NC(=O)[C@H](N)c3ccccc3)[C@H]2SC1` [Cephalexin]: the MIC with Pseudomonas aeruginosa [2] was above 32 µg/mL; in the test with Klebsiella pneumoniae it was 4 µg/mL (≈ 11.5 µM); in the test on Escherichia coli [3] (ATCC25922) it was 8 µg/mL (≈ 23 µM); in the test with Escherichia coli [3], 8 µg/mL (≈ 23 µM); in [4], above 32 µg/mL; in the test with Enterobacter cloacae it was above 32 µg/mL. Besides, the MIC with Acinetobacter baumannii was above 32 µg/mL.
Turning to `O=C(O)c1cn(C2CC2)c2cc(N3CCNCC3)c(F)cc2c1=O` [Ciprofloxacin], the MIC in test [6] (ATCC49226, read-out: Minimal Inhibitory Concentration) is 0.004 µg/mL (≈ 0.0121 µM). In addition, the “Minimal Inhibitory Concentration” value in [6] was 0.004 µg/mL.
On to `C[C@H]1c2cccc(O)c2C(=O)C2=C(O)[C@]3(O)C(=O)C(C(N)=O)=C(O)[C@@H](N(C)C)[C@@H]3[C@@H](O)[C@@H]21` [Doxycycline], for which the MIC is above 8 µg/mL with Pseudomonas aeruginosa [2]; 1 µg/mL (≈ 2.25 µM) in the test with Klebsiella pneumoniae; 0.5 µg/mL (≈ 1.13 µM) in the test with Escherichia coli [3] (ATCC25922); 0.25 µg/mL (≈ 0.563 µM) in the test with Escherichia coli [3]; 0.5 µg/mL (≈ 1.13 µM) in test [4]; 1 µg/mL (≈ 2.25 µM) in the test with Enterobacter cloacae. For the same compound, the MIC in the test on Acinetobacter baumannii worked out at 0.5 µg/mL (≈ 1.13 µM). Also, the “Minimal Inhibitory Concentration” value (in test [4]; in the test with Acinetobacter baumannii) was 0.5 µg/mL in each case.
For the compound `C[C@H]1COc2c(N3CCN(C)CC3)c(F)cc3c(=O)c(C(=O)O)cn1c23` [Levofloxacin], the MIC in the test with Pseudomonas aeruginosa [2] was 1 µg/mL (≈ 2.77 µM); in the test with Klebsiella pneumoniae it was 0.03 µg/mL (≈ 0.083 µM); with Escherichia coli [3] (ATCC25922), 0.015 µg/mL (≈ 0.0415 µM); in test [4], 0.5 µg/mL (≈ 1.38 µM); in the test on Enterobacter cloacae, 0.03 µg/mL (≈ 0.083 µM); in the test with Acinetobacter baumannii it was 0.5 µg/mL (≈ 1.38 µM). Also, the “Minimal Inhibitory Concentration” value with Klebsiella pneumoniae is 0.03 µg/mL; in the test on Escherichia coli [3] (setting [7]) it was 0.015 µg/mL; in test [4] it was 0.5 µg/mL; with Enterobacter cloacae, 0.03 µg/mL; with Acinetobacter baumannii, 0.5 µg/mL.
For the compound `C[C@@H](O)[C@H]1C(=O)N2C(C(=O)O)=C(S[C@@H]3CN[C@H](C(=O)N(C)C)C3)[C@H](C)[C@H]12` [Meropenem], the “CLSI QC range of MIC” value was “(0.008-0.06) μg/ml” in the test on Escherichia coli [1] and “(0.12-1) μg/ml” in the test on Pseudomonas aeruginosa [5]. Further, the MIC is 0.25 µg/mL (≈ 0.652 µM) with Pseudomonas aeruginosa [2]; 0.03 µg/mL (≈ 0.0782 µM) with Klebsiella pneumoniae; 0.015 µg/mL (≈ 0.0391 µM) in the test on Escherichia coli [3] (ATCC25922); 0.015 µg/mL (≈ 0.0391 µM) in the test on Escherichia coli [3]; 2 µg/mL (≈ 5.22 µM) in test [4]; 0.06 µg/mL (≈ 0.156 µM) with Enterobacter cloacae. Besides, the MIC in the test with Acinetobacter baumannii was 1 µg/mL (≈ 2.61 µM). For the same compound, the “Minimal Inhibitory Concentration” value in the test with Pseudomonas aeruginosa [2] amounted to 0.25 µg/mL; in the test with Klebsiella pneumoniae, 0.03 µg/mL; with Escherichia coli [3] (setting [7]) it was 0.015 µg/mL; with Escherichia coli [3] (Escherichia coli MMX 120, acrAB efflux pump knockout), 0.015 µg/mL.
